One series concerns F. oxysporum. Description: Cyclotide stability assay in F. oxysporum culture. The format is in vitro ADME, Fusarium oxysporum. Conditions: 5 days old F. oxysporum culture (3000 spores in 150 μl 24 g l^-1 PDB), 5 μg cyO2 per well, 3 days, HPLC-UV 280 nm AUC relative to time 0, mean of triplicates, unaltered molecular mass. The protocol: Freshly harvested F. oxysporum spores were grown in microplates (3000 spores in 150 μl of 24 g l^-1 PDB per well) on a rotary shaker. After 5 days of incubation, 5 μg of cyO2 in 10 μl of Milli-Q water was added to each well. Samples of the medium and mycelia were collected in Eppendorf tubes immediately after adding cyO2 (time 0) and after incubation with the cyclotide for 2, 4, 8h, 1, 2, and 3 days. The samples were freeze-dried, crushed with a pestle, and extracted with 200 μl of buffer B for 4 h on the rotary shaker. After centrifugation, the supernatant was collected, freeze-dried and reconstituted in buffer A for analysis by HPLC-UV-ESI-MS. HPLC was performed over 18 min using an LC-20 UFLC system (Shimadzu, Japan) with photodiode array detector (PDA) and a Waters (Milford, MA) XTerra MS C18 HPLC column (2.1 × 50 mm, with a particle size of 2.5 μm) at a flow rate of 0.5 ml min^-1 with a linear gradient from 5% to 60% ACN and 0.1% formic acid in water. ESI-MS detection was used to identify the cyO2 peak and to detect modifications of the peptide that may have been introduced by the fungus. For each incubation time, the peaks in the 280 nm UV chromatogram corresponding to cyO2 were integrated, and the mean area under the curve (AUC) for each incubation time was computed from independent triplicates. […]

The next series relates to Fusarium graminearum. Particulars: 48 h.
A further series deals with Mycosphaerella fragariae. Particulars: 48 h.
Another series deals with Alternaria alternata. Conditions: 72 h.
The subject of series [1] is Colletotrichum utrechtense. Conditions: 72 h.
A short description of series [2]: Liposome leakage assay, fungal membrane model. Conditions: read-out: EC50 of liposome permeabilization (carboxyfluorescein leakage); S. cerevisiae polar lipid extract:ergosterol 7:3 liposomes, Tris buffer, 45 min, % of Triton X-100 leakage, triplicate.
Series [3] relates to Dickeya dadantii strain 3937. Particulars: 24 h.
Series [4] relates to Pectobacterium atrosepticum SCRI 1043. Particulars: 24 h.
The test system of the next series is Fusarium oxysporum. Conditions: 0 h.
Another series relates to Fusarium culmorum. Particulars: 48 h.

Converted amounts (≈) assume the structure as drawn. Where a SMILES comes first, the peptide text is derived from it. Bridges are numbered along the chain shown (N, C = ends).

The term MIC denotes the lowest concentration that inhibits growth of the organism. A high value points to a need for much substance. The EC50 is the concentration needed to bring the measured effect to its halfway point. In the case of `CC[C@H](C)[C@@H]1NC(=O)[C@H](C)NC(=O)[C@H](CO)NC(=O)[C@H](CO)NC(=O)[C@H]([C@@H](C)CC)NC(=O)[C@@H]2CSSC[C@@H]3NC(=O)[C@H](C(C)C)NC(=O)[C@H](CCCCN)NC(=O)[C@H](CO)NC(=O)[C@H](CCCCN)NC(=O)[C@@H]4CSSC[C@H](NC(=O)[C@H](CO)NC(=O)[C@H](CCC(=O)O)NC(=O)CNC(=O)[C@H](CSSC[C@H](NC(=O)CNC1=O)C(=O)N[C@@H](CO)C(=O)N4)NC(=O)[C@@H]1CCCN1C(=O)[C@H]([C@@H](C)CC)NC(=O)CNC(=O)[C@H](CC(N)=O)NC(=O)[C@H](CCCNC(=N)N)NC(=O)[C@H](Cc1ccc(O)cc1)NC3=O)C(=O)N[C@@H](C(C)C)C(=O)N[C@@H](Cc1c[nH]c3ccccc13)C(=O)N[C@@H]([C@@H](C)CC)C(=O)N1CCC[C@H]1C(=O)N2` [cyO2, cycloviolacin O2] (cyclo(AIGCSCKSKVCYRNGIPCGESCVWIPCISS); disulfide 4-18, 6-22, 11-27 (inferred); ring closure inferred), the “initially added amount recovered after co-culture with F. oxysporum” value in the series with F. oxysporum is listed as approximately 100%. Also, the MIC is 6.25 µM (≈ 19.6 µg/mL) in the series on Fusarium graminearum; more than 25 µM against Mycosphaerella fragariae; 1.5 µM (≈ 4.71 µg/mL) with Alternaria alternata; 6.25 µM (≈ 19.6 µg/mL) in [1]; 75 µM (≈ 236 µg/mL) in [3]; 100 µM (≈ 314 µg/mL) in series [4]. In the series with Fusarium culmorum, this compound displayed an MIC of 1.5 µM (≈ 4.71 µg/mL). Besides, the EC50 in series [2] was 72 nM. In addition, the “MIC at the inoculum used for immunogold labeling” value against Fusarium oxysporum turned out to be 80 µM.
